Source: US20160270405A1, “Synergistic Compositions Comprising a Bacillus Subtilis Strain and a Pesticide” (BASF CORPORATION, priority 2013, published 2016)

Legend:
corn = test: Improvement of plant growth in corn: seed treatment, two week growth in seed germination pouches; assay type: in vivo; details: pyraclostrobin 1 g a.i./100 kg seed and/or FB17 1 × 10^6 CFU per seed, two weeks growth
Experimental: (§1) Pyraclostrobin was applied to corn or wheat seeds as the commercial, liquid seed treatment formulation Stamina® (200 g per litre a.i., BASF Corporation, Research Triangle Park, North Carlolina), whereas Bacillus subtilis FB17 was applied to corn seeds as a SC formulation (about 2×10^10 CFU ml^−1).
Corn or wheat seeds were treated at the BASF Seed Solutions Technology Center (SSTC) in Ames, Iowa. Pyraclostrobin and Bacillus subtilis UD1022 were applied to maize seeds as water-based slurries by using methods consistent with commercial seed treatment applications in a laboratory-scale batch treater. Briefly, 500 g of corn seeds were added to the drum of a laboratory-scale batch treater and 6 ml of prepared slurry (with appropriate amount of pyraclostrobin, Bacillus subtilis FB17, or combination thereof) was applied to the seed as the drum rotated. For 500 g of wheat seeds, 8 ml of slurry was used. Seed was rotated in the drum for 30 seconds following application of the slurry to assure uniform and complete coverage to the seed surface.
Treated seeds were placed in seed germination pouches (Mega International, St. Paul, Minn.) and 20 ml of fertilizer solution that provided 50 ppm nitrogen, 7.5 ppm phosphorus, and 37.5 ppm potassium (derived from calcium nitrate, potassium nitrate, phosphoric acid and adjusted to pH 6.5) was added to each pouch. Seed germination pouches were placed in 25° C. growth chambers with a 16 h photoperiod. Five ml of fertilizer solution was added to seed germination pouches at two day intervals to replenish water lost to evapotranspiration.
Corn or wheat plants were allowed to grow for two weeks. At the conclusion of the two week growth period, plant height and shoot and root dry weights were determined. Plant height was measured in centimeters. Shoot and root tissues were separated and dried in an oven at 68° C. for three days. Shoot and root dry weights were measured in mg using an analytical balance.
(§2) Treatments were arranged in a completely randomized design with ten replications per treatment. Shoot height, shoot dry weight and root dry weight data were expressed as difference (%) relative to the not-treated control to facilitate application of Colby's formula (Colby, 1967) to calculate expected difference (EColby).
EColby=PA+PB−PA*PB/100 • EColby expected difference, expressed in % difference from the not-treated control, when using the mixture of the active compounds A and B at the concentrations a and b • PA difference, expressed as % difference from the not-treated control, when using the active compound A at the concentration a • PB difference, expressed in % difference from the not-treated control, when using the active compound B at the concentration b.

wheat = test: Improvement of plant growth in wheat: seed treatment, two week growth in seed germination pouches; assay type: in vivo; details: pyraclostrobin 1 g a.i./100 kg seed and/or FB17 1 × 10^6 CFU per seed, two weeks growth
Experimental: as §1
Corn or wheat seeds were treated at the BASF Seed Solutions Technology Center (SSTC) in Ames, Iowa. Pyraclostrobin and Bacillus subtilis UD1022 were applied to maize seeds as water-based slurries by using methods consistent with commercial seed treatment applications in a laboratory-scale batch treater. […]
Corn or wheat plants were allowed to grow for two weeks. At the conclusion of the two week growth period, plant height and shoot and root dry weights were determined. Plant height was measured in centimeters. […] Shoot and root dry weights were measured in mg using an analytical balance.
as §2, with “(EColby). […]” for “(EColby).”

COC(=O)N(OC)c1ccccc1COc1ccn(-c2ccc(Cl)cc2)n1 [Pyraclostrobin, pyraclostrobin] was tested, and the “Difference (shoot dry weight) relative to not-treated control” value (corn) was 1.1%, the “Difference (shoot height) relative to not-treated control” value (corn) was 3.5% and the Shoot dry weight (corn; dried at 68° C. for three days) was 85.0 mg. For the same compound, the Shoot height (corn; mean of 10 measurements) was 29.7 cm, the “Difference (root dry weight) relative to not-treated control” value (wheat) was 17.4% and the Root dry weight (wheat; dried at 68° C. for three days) was 10.1 mg.
